What was measured:
[1] = Crystal; Adiabatic calorimetry
[2] = molar heat capacity at constant volume; details: Liquid, Vacuum adiabatic calorimetry

CC(C)C [2-methylpropane]
Details | Triple point temperature [K]
[1] | 113.71

[2]
Details | molar heat capacity at constant volume [J/K/mol]
119.82 K, 6500 kPa | 71.22
122.33 K, 10732 kPa | 71.61
124.97 K, 15325 kPa | 72.14
127.43 K, 20667 kPa | 72.63
130.02 K, 25536 kPa | 73.32
132.43 K, 28973 kPa | 73.82
141.37 K, 4922 kPa | 73.32
143.72 K, 9088 kPa | 73.74
146.26 K, 13401 kPa | 74.25
148.59 K, 17196 kPa | 74.72
151.09 K, 21305 kPa | 75.18
153.38 K, 24872 kPa | 75.69
155.84 K, 28673 kPa | 76.28
162.3 K, 4549 kPa | 75.71
164.6 K, 8126 kPa | 76.26
167.03 K, 11587 kPa | 76.59
169.29 K, 14798 kPa | 77.08
171.69 K, 18296 kPa | 77.43
173.93 K, 21461 kPa | 78.06
176.29 K, 24825 kPa | 78.43
178.5 K, 27869 kPa | 78.99
180.83 K, 31062 kPa | 79.8
183.24 K, 4049 kPa | 78.07
185.45 K, 6869 kPa | 78.63
187.83 K, 9994 kPa | 79.02
190.01 K, 12743 kPa | 79.62
192.38 K, 15769 kPa | 79.81
194.51 K, 18415 kPa | 80.61
196.86 K, 21369 kPa | 81.16
198.97 K, 23939 kPa | 81.69
201.31 K, 26822 kPa | 81.98
203.38 K, 29282 kPa | 82.49
203.62 K, 3700 kPa | 80.96
205.69 K, 32085 kPa | 83.13
205.82 K, 6192 kPa | 81.19
208.09 K, 8785 kPa | 82.04
210.26 K, 11205 kPa | 82.36
212.53 K, 13758 kPa | 83
214.66 K, 16095 kPa | 83.42
216.92 K, 18597 kPa | 83.89
219.02 K, 20866 kPa | 84.44
221.26 K, 23313 kPa | 85
223.33 K, 25507 kPa | 85.63
224.21 K, 3209 kPa | 84.09
225.57 K, 27916 kPa | 85.85
226.5 K, 5490 kPa | 84.53
227.6 K, 30036 kPa | 86.44
228.59 K, 7563 kPa | 85.18
229.83 K, 32388 kPa | 86.73
230.86 K, 9783 kPa | 85.57
232.95 K, 11833 kPa | 86.15
235.18 K, 13991 kPa | 86.65
237.26 K, 16001 kPa | 87.31
239.46 K, 18103 kPa | 87.79
241.54 K, 20084 kPa | 88.35
243.72 K, 22131 kPa | 88.62
244.91 K, 2940 kPa | 87.7
245.77 K, 24074 kPa | 89.4
246.88 K, 4626 kPa | 88.13
247.92 K, 26062 kPa | 89.81
249.24 K, 6667 kPa | 88.84
249.98 K, 27977 kPa | 90.18
251.17 K, 8311 kPa | 89.23
252.11 K, 29918 kPa | 91.01
253.54 K, 10334 kPa | 89.74
254.15 K, 31797 kPa | 91.18
255.44 K, 11931 kPa | 90.33
257.8 K, 13926 kPa | 90.58
259.68 K, 15488 kPa | 91.3
262.03 K, 17452 kPa | 91.98
263.88 K, 18974 kPa | 92.4
264.62 K, 2580 kPa | 91.58
266.23 K, 20919 kPa | 93.11
266.61 K, 4054 kPa | 92.14
268.06 K, 22404 kPa | 93.8
268.91 K, 5781 kPa | 92.42
270.4 K, 24318 kPa | 94.15
270.88 K, 7235 kPa | 92.99
272.22 K, 25772 kPa | 94.9
273.17 K, 8940 kPa | 93.07
274.56 K, 27659 kPa | 95.07
275.12 K, 10363 kPa | 94.06
276.36 K, 29087 kPa | 95.35
277.4 K, 12047 kPa | 94.2
278.68 K, 30942 kPa | 95.99
279.34 K, 13450 kPa | 95.2
280.46 K, 32342 kPa | 96.46
281.62 K, 15113 kPa | 95.82
283.54 K, 16491 kPa | 96.18
283.66 K, 2372 kPa | 95.67
285.76 K, 3730 kPa | 96.28
285.81 K, 18136 kPa | 97.4
287.72 K, 19487 kPa | 97.22
287.93 K, 5135 kPa | 96.68
289.99 K, 21118 kPa | 98.16
290.04 K, 6483 kPa | 97.37
291.87 K, 22438 kPa | 98.44
292.18 K, 7863 kPa | 98.07
294.14 K, 24048 kPa | 99.1
294.3 K, 9205 kPa | 98
296.01 K, 25350 kPa | 99.94
296.42 K, 10563 kPa | 98.75
298.28 K, 26943 kPa | 99.99
298.53 K, 11894 kPa | 98.97
300.14 K, 28222 kPa | 100.48
300.64 K, 13229 kPa | 100.03
302.39 K, 29793 kPa | 100.74
302.75 K, 14551 kPa | 100.42
303.81 K, 2271 kPa | 99.83
304.25 K, 31058 kPa | 101.52
304.85 K, 15868 kPa | 101.01
306.07 K, 3504 kPa | 100.71
306.5 K, 32612 kPa | 102.04
306.98 K, 17187 kPa | 101.25
308.12 K, 4631 kPa | 100.8
309.04 K, 18478 kPa | 102.38
310.38 K, 5860 kPa | 101.98
311.17 K, 19783 kPa | 102.14
312.42 K, 6973 kPa | 101.82
312.62 K, 2143 kPa | 102.01
313.23 K, 21063 kPa | 102.98
314.68 K, 8197 kPa | 102.64
314.81 K, 3247 kPa | 102.19
315.35 K, 22355 kPa | 103.37
316.7 K, 9293 kPa | 102.97
316.95 K, 4329 kPa | 103.28
317.39 K, 23611 kPa | 103.51
318.98 K, 10517 kPa | 103.88
319.15 K, 5436 kPa | 103.12
319.53 K, 24899 kPa | 104.29
320.98 K, 11596 kPa | 104.6
321.27 K, 6508 kPa | 104.19
321.55 K, 26133 kPa | 104.78
322.43 K, 2027 kPa | 103.88
323.27 K, 12819 kPa | 104.79
323.48 K, 7612 kPa | 104.96
323.69 K, 27412 kPa | 105.09
324.79 K, 3113 kPa | 105.07
325.25 K, 13880 kPa | 105.73
325.59 K, 8668 kPa | 104.99
325.7 K, 28633 kPa | 106.08
326.81 K, 4037 kPa | 105.22
327.54 K, 15099 kPa | 105.76
327.82 K, 9782 kPa | 105.71
327.84 K, 29902 kPa | 106.3
329.14 K, 5110 kPa | 105.78
329.51 K, 16147 kPa | 106.45
329.84 K, 31107 kPa | 106.78
329.89 K, 10815 kPa | 106.1
331.17 K, 6040 kPa | 106.74
331.81 K, 17362 kPa | 106.57
331.98 K, 32367 kPa | 107.91
332.14 K, 11928 kPa | 106.39
333.49 K, 7102 kPa | 106.91
333.76 K, 18392 kPa | 107.16
333.97 K, 33555 kPa | 107.88
334.19 K, 12947 kPa | 107.66
335.53 K, 8034 kPa | 107.69
336.06 K, 19603 kPa | 107.61
336.45 K, 14061 kPa | 107.61
337.84 K, 9085 kPa | 108.12
338 K, 20617 kPa | 108.51
338.49 K, 15066 kPa | 108.51
339.89 K, 10016 kPa | 108.49
340.31 K, 21824 kPa | 108.42
340.75 K, 16177 kPa | 108.82
342.19 K, 11067 kPa | 108.69
342.23 K, 22826 kPa | 110.23
342.77 K, 17169 kPa | 109.53
344.24 K, 11989 kPa | 109.21
344.55 K, 24029 kPa | 109.59
